# Target: T1, human PDE2A3 enzyme (Homo sapiens, UniProt O00408)
# T1 construct: Human PDE2A3 full-length gene was transduced into Sf9; His-tag; made in house; host or cells: Sf9 insect cells
# Test: PDE Enzyme Inhibitory Assay (SPA, [3H]cGMP substrate)
# Type: biochemical
# Settings: compound 1 μM; [3H]cGMP 77 nM; 60 min at room temperature; read-out: inhibitory rate (%) (1 μM)
# Description: PDE Enzyme Inhibitory Assay Human PDE2A3 full-length gene was transduced into Sf9, and human PDE2A3 enzyme was purified by His-tag affinity column and gel filtration. The enzyme was stored at −70° C. until use. PDE activity was measured using a SPA (Scintillation Proximity Assay) (GE Healthcare). To evaluate the inhibitory activity of the compound, 10 μl of serial diluted compounds were reacted with 20 μl of PDE enzyme in assay buffer (50 mM HEPES-NaOH, 8.3 mM MgCl2, 1.7 mM EGTA, 0.1% BSA (pH 7.4)) for 30 min. at room temperature. Final concentration of DMSO in the reaction solution was 1 percent. Compounds were tested in duplicate in 96-well half-area plates (Corning) or 384-well OptiPlate (PerkinElmer). To start the reaction, 10 μl of substrate [^3H] cGMP (final concentration 77 nM, PerkinElmer) was added to a total volume of 40 μl. After reaction for 60 min at room temperature, 20 μl of 20 mg/mL yttrium SPA beads containing zinc sulfate was added to terminate the PDE reaction. After being settled for further 1 hour, the assay plates were counted in a scintillation counter (PerkinElmer) to allow calculation of inhibition rate. Inhibition rate was calculated on the basis of 0% control wells with enzyme and DMSO, and 100% control wells without enzyme.
# T1 sequence (O00408 whole entry): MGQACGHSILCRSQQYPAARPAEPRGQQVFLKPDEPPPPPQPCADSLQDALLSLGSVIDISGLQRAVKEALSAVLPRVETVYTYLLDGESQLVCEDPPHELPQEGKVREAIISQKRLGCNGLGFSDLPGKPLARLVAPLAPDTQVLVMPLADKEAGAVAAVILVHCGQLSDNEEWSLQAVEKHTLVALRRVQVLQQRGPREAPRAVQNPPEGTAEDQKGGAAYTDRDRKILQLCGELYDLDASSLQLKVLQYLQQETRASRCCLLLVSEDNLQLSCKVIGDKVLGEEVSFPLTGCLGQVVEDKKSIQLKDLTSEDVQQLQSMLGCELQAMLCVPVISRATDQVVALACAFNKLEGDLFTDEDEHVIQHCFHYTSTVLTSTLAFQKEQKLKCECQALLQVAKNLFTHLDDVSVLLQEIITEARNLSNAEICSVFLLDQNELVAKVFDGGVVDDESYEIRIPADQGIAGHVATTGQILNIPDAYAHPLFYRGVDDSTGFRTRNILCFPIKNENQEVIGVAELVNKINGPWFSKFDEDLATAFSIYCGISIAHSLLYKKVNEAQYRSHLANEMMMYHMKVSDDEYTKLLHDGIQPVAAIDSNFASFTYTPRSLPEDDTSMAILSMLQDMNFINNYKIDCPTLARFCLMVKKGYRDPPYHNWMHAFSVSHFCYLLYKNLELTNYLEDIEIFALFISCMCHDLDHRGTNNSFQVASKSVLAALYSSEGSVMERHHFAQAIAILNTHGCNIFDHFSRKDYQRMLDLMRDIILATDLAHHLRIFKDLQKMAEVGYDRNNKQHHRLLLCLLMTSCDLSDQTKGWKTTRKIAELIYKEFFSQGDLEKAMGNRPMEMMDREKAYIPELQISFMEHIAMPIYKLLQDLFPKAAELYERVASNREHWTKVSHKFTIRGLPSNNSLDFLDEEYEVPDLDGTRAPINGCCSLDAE
row,SMILES,inhibition at 1 µM [%]
1,"COCC(NC(=O)c1cc(=O)[nH]c2cccnc12)c1ccc(OC(F)(F)F)cc1 (centres unmarked) [Example 1, N-(2-methoxy-1-(4-(trifluoromethoxy)phenyl)ethyl)-2-oxo-1,2-dihydro-1,5-naphthyridine-4-carboxamide]",99
2,"COC[C@@H](NC(=O)c1cnn2cc(C)cnc12)c1ccc(OC(F)(F)F)c(F)c1 [Example 12, N-((1S)-1-(3-fluoro-4-(trifluoromethoxy)phenyl)-2-methoxyethyl)-6-methylpyrazolo[1,5-a]pyrimidine-3-carboxamide]",99
3,"CCN(C)c1ccn2ncc(C(=O)NC(c3ccc(OC(F)(F)F)c(F)c3)C(C)(C)O)c2n1 (centres unmarked) [Example 29, 5-(ethyl(methyl)amino)-N-(1-(3-fluoro-4-(trifluoromethoxy)phenyl)-2-hydroxy-2-methylpropyl)pyrazolo[1,5-a]pyrimidine-3-carboxamide]",100
4,"COCC(NC(=O)c1cnn2ccc(N3CCOCC3)nc12)c1ccc(OC(F)(F)F)c(F)c1 (centres unmarked) [Example 38, N-(1-(3-fluoro-4-(trifluoromethoxy)phenyl)-2-methoxyethyl)-5-(morpholin-4-yl)pyrazolo[1,5-a]pyrimidine-3-carboxamide]",98
5,"Cc1cn2ncc(C(=O)NC(c3ccc(OC(F)(F)F)c(F)c3)C(C)(C)O)c2nc1N1CCC1 (centres unmarked) [Example 59, 5-(azetidin-1-yl)-N-(1-(3-fluoro-4-(trifluoromethoxy)phenyl)-2-hydroxy-2-methylpropyl)-6-methylpyrazolo[1,5-a]pyrimidine-3-carboxamide]",101
6,"Cn1cc(C(=O)N[C@@H](c2ccc(OC(F)(F)F)c(F)c2)C(C)(C)O)c2nc(C3CC3)cc(=O)n21 [Example 66, 5-cyclopropyl-N-((1S)-1-(3-fluoro-4-(trifluoromethoxy)phenyl)-2-hydroxy-2-methylpropyl)-1-methyl-7-oxo-1,7-dihydropyrazolo[1,5-a]pyrimidine-3-carboxamide]",98
7,"CC(C)(O)[C@@H](NC(=O)c1cnn2ccc(-c3cnn(C(F)F)c3)nc12)c1ccc(OC(F)(F)F)cc1 [Example 70, 5-(1-(difluoromethyl)-1H-pyrazol-4-yl)-N-((1S)-2-hydroxy-2-methyl-1-(4-(trifluoromethoxy)phenyl)propyl)pyrazolo[1,5-a]pyrimidine-3-carboxamide]",101
8,"CC(C)(O)[C@@H](NC(=O)c1cnn2ccc(-c3ccccn3)nc12)c1ccc(OC(F)(F)F)cc1 [Example 72, N-((1S)-2-hydroxy-2-methyl-1-(4-(trifluoromethoxy)phenyl)propyl)-5-(pyridin-2-yl)pyrazolo[1,5-a]pyrimidine-3-carboxamide]",100
9,"Cn1cc(C(=O)N[C@@H](c2ccc(OC(F)(F)F)cc2)C(C)(C)O)c2nc(-c3ccccn3)cc(=O)n21 [Example 77, N-((1S)-2-hydroxy-2-methyl-1-(4-(trifluoromethoxy)phenyl)propyl)-1-methyl-7-oxo-5-(pyridin-2-yl)-1,7-dihydropyrazolo[1,5-a]pyrimidine-3-carboxamide]",100
10,"Cc1cn2ncc(C(=O)N[C@@H](c3ccc(OC(F)(F)F)cc3)C(C)(C)O)c2nc1-n1cnc(C(F)(F)F)c1 [Example 79, N-((1S)-2-hydroxy-2-methyl-1-(4-(trifluoromethoxy)phenyl)propyl)-6-methyl-5-(4-(trifluoromethyl)-1H-imidazol-1-yl)pyrazolo[1,5-a]pyrimidine-3-carboxamide]",101
11,"Cc1cn2ncc(C(=O)N[C@@H](c3ccc(OC(F)(F)F)cc3)C(C)(C)O)c2nc1-c1cnn(C(F)F)c1 [Example 83, 5-(1-(difluoromethyl)-1H-pyrazol-4-yl)-N-((1S)-2-hydroxy-2-methyl-1-(4-(trifluoromethoxy)phenyl)propyl)-6-methylpyrazolo[1,5-a]pyrimidine-3-carboxamide]",100
